Reference: patent US12048680B2, “Use of Gemfibrozil and derivative thereof for treatment and/or prevention of neurodegenerative disease” (Kunming Institute of Zoology Chinese Academy of Sciences, priority 2018, dated 2024)

Tested on: APP/PS1ΔE9 mice
Assay: Open field experiment (anxiety symptoms)
Type: in vivo, mouse
Settings: 2 months of administration
Method: Gemfibrozil was administered to 8-month-old APP/PS1ΔE9 mice (male and female halves). Gemfibrozil was first dissolved in dimethyl sulfoxide (DMSO) at a concentration of 50 mg/mL, and then diluted to a final concentration of 50 μg/mL with mouse drinking water to obtain a drug solution. The mice in the administration group were allowed to freely drink the drug solution containing gemfibrozil, in which the final concentration of DMSO in the solution was 0.1%; and the mice in the control group were allowed to drink water containing 0.1% DMSO freely. All drinking devices contained with Gemfibrozil were wrapped in aluminum foil to prevent decomposition by exposure. During dosing, the drug solution was replaced every 2 days. Mice were measured daily for water consumption. After 2 months of dosing, all mice were subjected to behavioural experiments. Mice were placed in the laboratory to be behaviourally tested one hour prior to the start of daily behavioural studies, and all behavioural experiments were completed between 9 and 17 o'clock. All experiments involving animals were approved by Animal Ethics Committee of the Kunming Institute of Zoology, CAS. We evaluated the anxiety symptom behavior of APP/PS1ΔE9 mice 2 months after administration of Gemfibrozil using an open field experiment. […]

Cc1ccc(C)c(OCCCC(C)(C)C(=O)O)c1 [Gemfibrozil, 2,2-dimethyl-5-(2,5-dimethylphenoxy) pentanoic acid]
anxiety symptoms (vs control group): significantly alleviated | lingering time in the open field central region (vs control group (A, C in FIG. 2)): significantly increased
